What all share (assay type): functional, cell-based
Common to all, as to conditions: ileocyte

In data set [1] the target is T1, Ileal sodium/bile acid cotransporter (Mus musculus, UniProt P70172).
T1 sequence (P70172 whole entry): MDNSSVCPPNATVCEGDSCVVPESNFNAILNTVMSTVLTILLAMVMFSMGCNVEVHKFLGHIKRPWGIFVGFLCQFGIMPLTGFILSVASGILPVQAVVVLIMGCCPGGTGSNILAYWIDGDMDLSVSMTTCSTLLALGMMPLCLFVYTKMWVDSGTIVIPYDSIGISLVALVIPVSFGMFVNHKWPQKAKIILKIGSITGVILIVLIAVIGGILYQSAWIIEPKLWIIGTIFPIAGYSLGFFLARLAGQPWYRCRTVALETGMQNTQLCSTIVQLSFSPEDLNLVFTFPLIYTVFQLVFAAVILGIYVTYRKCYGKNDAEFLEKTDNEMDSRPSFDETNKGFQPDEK
The data set is described as follows: TP_TRANSPORTER: inhibition of Taurocholate uptake (Taurocholate: 0.72 uM, CDCA: a 100-fold excess) in isolated mouse ileocytes.

The target in data set [2] is T1, Ileal sodium/bile acid cotransporter. As to the kind of experiment: TP_TRANSPORTER: inhibition of Taurocholate uptake (Taurocholate: 0.72 uM, Deoxycholate: a 100-fold excess) in isolated mouse ileocytes.
The target is the same in data set [3]. As to the kind of experiment: TP_TRANSPORTER: inhibition of Taurocholate uptake (Taurocholate: 0.72 uM, GC: a 100-fold excess) in isolated mouse ileocytes.
The target is the same in data set [4]. As to the kind of experiment: TP_TRANSPORTER: inhibition of Taurocholate uptake (Taurocholate: 0.72 uM, Lithocholate: a 100-fold excess) in isolated mouse ileocytes.

For `C[C@H](CCC(=O)O)[C@H]1CC[C@H]2[C@@H]3[C@H](O)C[C@@H]4C[C@H](O)CC[C@]4(C)[C@H]3CC[C@]12C` [CHENODIOL], the Activity entry in data set [1] is “inhibitor [+]”. Take `C[C@H](CCC(=O)O)[C@H]1CC[C@H]2[C@@H]3CC[C@@H]4C[C@H](O)CC[C@]4(C)[C@H]3C[C@H](O)[C@]12C` [DEOXYCHOLIC ACID]: the Activity entry in data set [2] was “inhibitor [+]”. `C[C@H](CCC(=O)NCC(=O)O)[C@H]1CC[C@H]2[C@@H]3[C@H](O)C[C@@H]4C[C@H](O)CC[C@]4(C)[C@H]3C[C@H](O)[C@]12C` [GLYCOCHOLIC ACID]: in data set [3], the Activity result is “inhibitor [+]”.

With `C[C@H](CCC(=O)O)[C@H]1CC[C@H]2[C@@H]3CC[C@@H]4C[C@H](O)CC[C@]4(C)[C@H]3CC[C@]12C` [LITHOCHOLIC ACID], the Activity result in data set [4] is “inhibitor [+]”.

The values are drawn from ChEMBL document CHEMBL2074110, “Characterization, cDNA cloning, and functional expression of mouse ileal sodium-dependent bile acid transporter” (J Biochem, 1999).
